Values quoted from earlier work, collected in patent US6656473B2, “Tryptophan source from plants and uses thereof” (priority 2000, dated 2003).

Target: plasma albumin (Homo sapiens, UniProt P02768)
Conditions: after absorption

plasma albumin, sequence (P02768 25-609): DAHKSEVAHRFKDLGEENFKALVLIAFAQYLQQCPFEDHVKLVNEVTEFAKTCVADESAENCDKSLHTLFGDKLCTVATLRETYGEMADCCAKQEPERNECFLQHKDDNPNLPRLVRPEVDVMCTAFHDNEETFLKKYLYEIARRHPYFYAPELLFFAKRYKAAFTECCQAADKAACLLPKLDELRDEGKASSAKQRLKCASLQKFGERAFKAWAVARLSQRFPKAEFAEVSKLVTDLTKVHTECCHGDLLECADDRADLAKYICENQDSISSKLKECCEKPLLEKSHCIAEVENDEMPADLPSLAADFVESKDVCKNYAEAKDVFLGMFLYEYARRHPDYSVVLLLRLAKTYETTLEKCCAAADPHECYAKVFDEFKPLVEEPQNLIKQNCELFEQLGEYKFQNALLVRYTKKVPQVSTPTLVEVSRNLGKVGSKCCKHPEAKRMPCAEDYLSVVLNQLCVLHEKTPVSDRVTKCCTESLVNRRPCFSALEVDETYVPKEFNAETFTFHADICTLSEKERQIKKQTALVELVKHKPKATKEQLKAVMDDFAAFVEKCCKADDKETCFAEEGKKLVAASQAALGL

Share circulating as free tryptophan: 20%
Share circulating in the blood bound to plasma albumin: approximately 80%
Compound: N[C@@H](Cc1c[nH]c2ccccc12)C(=O)O [tryptophan]
